# Data taken from ChEMBL document CHEMBL5543121, “Drug Repurposing of ACT001 to Discover Novel Promising Sulfide Prodrugs with Improved Safety and Potent Activity for Neutrophil-Mediated Antifungal Immunotherapy” (J Med Chem, 2024).
# The source made the active and inactive calls. No cut-off for these calls is given here.
# Experiments:
# [1] = tested on: Polymorphonuclear neutrophil; assay: Inhibition of fungal curdlan induced PD-L1 protein expression in mouse polymorphonuclear neutrophils at 20 uM incubated for 16 hrs by ELISA; assay type: functional, cell-based
# [2] = Cytotoxicity against mouse polymorphonuclear neutrophils assessed as cell viability at 20 uM incubated for 16 hrs; assay type: toxicity, cell-based; details: polymorphonuclear neutrophil
# [3] = molecular target: Signal transducer and activator of transcription 3 (Homo sapiens, UniProt P40763); assay: Binding affinity to Cys542 residue of human recombinant STAT3 assessed as covalent modification by measuring mass shift by LC-MS/MS analysis
# Signal transducer and activator of transcription 3, sequence (P40763 whole entry): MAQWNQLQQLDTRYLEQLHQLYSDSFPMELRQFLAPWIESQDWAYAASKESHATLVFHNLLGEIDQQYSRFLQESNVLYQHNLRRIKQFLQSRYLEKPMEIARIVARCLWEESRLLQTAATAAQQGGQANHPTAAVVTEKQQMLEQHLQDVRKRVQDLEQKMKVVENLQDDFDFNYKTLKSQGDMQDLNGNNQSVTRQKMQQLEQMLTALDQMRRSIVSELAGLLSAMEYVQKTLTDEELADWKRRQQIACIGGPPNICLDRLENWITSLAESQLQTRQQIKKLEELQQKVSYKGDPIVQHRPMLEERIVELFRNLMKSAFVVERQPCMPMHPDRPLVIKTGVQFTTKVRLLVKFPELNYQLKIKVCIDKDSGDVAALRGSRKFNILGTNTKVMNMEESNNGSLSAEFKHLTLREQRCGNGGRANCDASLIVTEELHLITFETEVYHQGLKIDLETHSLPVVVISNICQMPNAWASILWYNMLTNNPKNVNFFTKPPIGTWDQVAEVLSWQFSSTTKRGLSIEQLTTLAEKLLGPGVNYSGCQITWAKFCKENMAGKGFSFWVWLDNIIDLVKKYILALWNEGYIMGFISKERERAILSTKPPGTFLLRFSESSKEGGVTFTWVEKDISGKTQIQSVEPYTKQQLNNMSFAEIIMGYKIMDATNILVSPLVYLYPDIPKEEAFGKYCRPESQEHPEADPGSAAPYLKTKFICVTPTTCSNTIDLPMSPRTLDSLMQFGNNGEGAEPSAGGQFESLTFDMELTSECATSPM
compound,measurement,setting,value
C=C1C(=O)O[C@H]2[C@H]1CC[C@]1(C)O[C@@]13CC[C@@](C)(O)[C@H]23,inhibition,[1],Active
same,Activity,[2],Non-Toxic
same,Activity,[3],265 Da
